Results: patent publication US20260285850A1, “SUBSTITUTED OXAZOLIDINONES AND IMIDAZOLINONES AS HERBICIDES” (FMC CORPORATION, priority 2023, published 2026)

How the values were obtained:
Assay type in all cases: in vivo
[1] = test system: barnyardgrass (Echinochloa crus-galli); test: Test A preemergence soil spray, visual injury rating 0-100; conditions: 10 days, 0 = no effect, 100 = complete control
Summary of the method: (§1)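 Plants in a loam and sand soil blend were treated with each test chemical, in a non-phytotoxic solvent system including surfactant, either sprayed on seeded soil before emergence or applied after emergence at the one- to two-leaf stage. Ten days later in the greenhouse, plants were compared with untreated controls and visually rated from 0 (no effect) to 100 (complete control).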

[2] = test system: blackgrass (Alopecurus myosuroides); test: as above; conditions: 10 days, 0 = no effect, 100 = complete control
Summary of the method: as §1

corn (Zea mays) [3] = test: as above; conditions: 10 days, 0 = no effect, 100 = complete control
Summary of the method: as §1

[4] = test system: green foxtail (Setaria viridis); test: as above; conditions: 10 days, 0 = no effect, 100 = complete control
Summary of the method: as §1

kochia (Bassia scoparia) [5] = test: as above; conditions: 10 days, 0 = no effect, 100 = complete control
Summary of the method: as §1

[6] = test system: oat, wild (wild oat, Avena fatua); test: as above; conditions: 10 days, 0 = no effect, 100 = complete control
Summary of the method: as §1

[7] = test system: palmer (palmer amaranth, palmer pigweed, Amaranthus palmeri); test: as above; conditions: 10 days, 0 = no effect, 100 = complete control
Summary of the method: as §1

[8] = test system: ragweed (common ragweed, Ambrosia artemisiifolia); test: as above; conditions: 10 days, 0 = no effect, 100 = complete control
Summary of the method: as §1

[9] = test system: ryegrass, Italian (italian ryegrass, Lolium multiflorum); test: as above; conditions: 10 days, 0 = no effect, 100 = complete control
Summary of the method: as §1

soybean (Glycine max) [10] = test: as above; conditions: 10 days, 0 = no effect, 100 = complete control
Summary of the method: as §1

[11] = test system: wheat (Triticum aestivum); test: as above; conditions: 10 days, 0 = no effect, 100 = complete control
Summary of the method: as §1

[12] = test system: barnyardgrass (Echinochloa crus-galli); test: Test A postemergence application, visual injury rating 0-100; conditions: 10 days
Summary of the method: as §1

[13] = test system: blackgrass (Alopecurus myosuroides); test: as above; conditions: 10 days
Summary of the method: as §1

corn (Zea mays) [14] = test: as above; conditions: 10 days
Summary of the method: as §1

[15] = test system: galium (catchweed bedstraw, Galium aparine); test: as above; conditions: 10 days
Summary of the method: as §1

[16] = test system: green foxtail (Setaria viridis); test: as above; conditions: 10 days
Summary of the method: as §1

[17] = test system: horseweed (Erigeron canadensis); test: as above; conditions: 10 days
Summary of the method: as §1

kochia (Bassia scoparia) [18] = test: as above; conditions: 10 days
Summary of the method: as §1

[19] = test system: oat, wild (wild oat, Avena fatua); test: as above; conditions: 10 days
Summary of the method: as §1

[20] = test system: palmer (palmer amaranth, palmer pigweed, Amaranthus palmeri); test: as above; conditions: 10 days
Summary of the method: as §1

[21] = test system: ragweed (common ragweed, Ambrosia artemisiifolia); test: as above; conditions: 10 days
Summary of the method: as §1

[22] = test system: ryegrass, Italian (italian ryegrass, Lolium multiflorum); test: as above; conditions: 10 days
Summary of the method: as §1

soybean (Glycine max) [23] = test: as above; conditions: 10 days
Summary of the method: as §1

[24] = test system: wheat (Triticum aestivum); test: as above; conditions: 10 days
Summary of the method: as §1

[25] = test system: barnyardgrass (Echinochloa crusgalli); test: Test B flooded paddy test, visual plant response rating 0-100; conditions: 250 g ai/ha, Flood, applied to paddy water, evaluated after 13 days
Summary of the method: (§2)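 Visual scores versus untreated controls were recorded 13 days after treatment of greenhouse-held plants. At the 2-leaf stage, pots were flooded 3 cm above the soil surface and compounds added straight to the water.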

[26] = test system: ducksalad (Heteranthera limosa); test: as above; conditions: 250 g ai/ha, Flood, applied to paddy water, evaluated after 13 days
Summary of the method: as §2

rice (Oryza sativa) = test: as above; conditions: 250 g ai/ha, Flood, applied to paddy water, evaluated after 13 days
Summary of the method: as §2

[27] = test system: sedge, umbrella (small-flower umbrella sedge, Cyperus difformis); test: as above; conditions: 250 g ai/ha, Flood, applied to paddy water, evaluated after 13 days
Summary of the method: as §2

[28] = 31 g ai/ha, postemergence, 0 = no effect, 100 = complete control
[29] = Postemergence, 125 g ai/ha, 0 is no effect, 100 is complete control

With `CC1(C(=O)NC2CCC(C(=O)NS(C)(=O)=O)C2)CN(c2cc(F)cc(F)c2)C(=O)O1` (stereo not shown) [Compound 13] the “Barnyardgrass plant response rating (0-100)” value ([1]; 31 g ai/ha) was 0, the “Barnyardgrass plant response rating (0 to 100 scale)” value ([1]; 125 g ai/ha) was 20 and the “Blackgrass plant response rating (0-100)” value ([2]; 31 g ai/ha) was 20. The “Blackgrass plant response rating (0 to 100 scale)” value ([2]; 125 g ai/ha) was 50, the “Corn plant response rating (0-100)” value (corn (Zea mays) [3]; 31 g ai/ha) was 0 and the “Corn plant response rating (0 to 100 scale)” value (corn (Zea mays) [3]; 125 g ai/ha) was 0. For the same molecule, the “Foxtail, Green plant response rating (0-100)” value ([4]; 31 g ai/ha) was 0, the “Foxtail, Green plant response rating (0 to 100 scale)” value ([4]; 125 g ai/ha) was 50 and the “Kochia plant response rating (0-100)” value (kochia (Bassia scoparia) [5]; 31 g ai/ha) was 0. The “Kochia plant response rating (0 to 100 scale)” value (kochia (Bassia scoparia) [5]; 125 g ai/ha) was 0, the “Oat, Wild plant response rating (0-100)” value ([6]; 31 g ai/ha) was 0 and the “Oat, Wild plant response rating (0 to 100 scale)” value ([6]; 125 g ai/ha) was 20. For the same molecule, the “Amaranth, Palmer plant response rating (0-100)” value ([7]; 31 g ai/ha) was 0, the “Amaranth, Palmer plant response rating (0 to 100 scale)” value ([7]; 125 g ai/ha) was 0 and the “Ragweed plant response rating (0-100)” value ([8]; 31 g ai/ha) was 40. For the same molecule, the “Ragweed plant response rating (0 to 100 scale)” value ([8]; 125 g ai/ha) was 20, the “Ryegrass, Italian plant response rating (0-100)” value ([9]; 31 g ai/ha) was 20 and the “Ryegrass, Italian plant response rating (0 to 100 scale)” value ([9]; 125 g ai/ha) was 90. The “Soybean plant response rating (0-100)” value (soybean (Glycine max) [10]; 31 g ai/ha) was 0, the “Soybean plant response rating (0 to 100 scale)” value (soybean (Glycine max) [10]; 125 g ai/ha) was 0 and the “Wheat plant response rating (0-100)” value ([11]; 31 g ai/ha) was 0. For the same molecule, the “Wheat plant response rating (0 to 100 scale)” value ([11]; 125 g ai/ha) was 80, the “Barnyardgrass plant response rating (0-100)” value [12, 28] was 10 and the “Barnyardgrass plant response rating (0 to 100 scale)” value [12, 29] was 70. For the same molecule, the “Blackgrass plant response rating (0-100)” value [13, 28] was 10, the “Blackgrass plant response rating (0 to 100 scale)” value [13, 29] was 60 and the “Corn plant response rating (0-100)” value (corn (Zea mays) [14]; [28]) was 0. The “Corn plant response rating (0 to 100 scale)” value (corn (Zea mays) [14]; [29]) was 30, the “Galium plant response rating (0-100)” value [15, 28] was 0 and the “Galium plant response rating (0 to 100 scale)” value [15, 29] was 70. For the same molecule, the “Foxtail, Green plant response rating (0-100)” value [16, 28] was 0, the “Foxtail, Green plant response rating (0 to 100 scale)” value [16, 29] was 50 and the “Horseweed plant response rating (0-100)” value [17, 28] was 0. The “Horseweed plant response rating (0 to 100 scale)” value [17, 29] was 20, the “Kochia plant response rating (0-100)” value (kochia (Bassia scoparia) [18]; [28]) was 0 and the “Kochia plant response rating (0 to 100 scale)” value (kochia (Bassia scoparia) [18]; [29]) was 50. The “Oat, Wild plant response rating (0-100)” value [19, 28] was 10, the “Oat, Wild plant response rating (0 to 100 scale)” value [19, 29] was 50 and the “Amaranth, Palmer plant response rating (0-100)” value [20, 28] was 10. The “Amaranth, Palmer / Pigweed, Palmer plant response rating (0 to 100 scale)” value [20, 29] was 90, the “Ragweed plant response rating (0-100)” value [21, 28] was 0 and the “Ragweed plant response rating (0 to 100 scale)” value [21, 29] was 20. The “Ryegrass, Italian plant response rating (0-100)” value [22, 28] was 20, the “Ryegrass, Italian plant response rating (0 to 100 scale)” value [22, 29] was 70 and the “Soybean plant response rating (0-100)” value (soybean (Glycine max) [23]; [28]) was 0. The “Soybean plant response rating (0 to 100 scale)” value (soybean (Glycine max) [23]; [29]) was 50, the “Wheat plant response rating (0-100)” value [24, 28] was 50 and the “Wheat plant response rating (0 to 100 scale)” value [24, 29] was 70. The “Plant response rating, Barnyardgrass (0 to 100 scale, 0 is no effect and 100 is complete control)” value [25] was 0, the “Plant response rating, Ducksalad (0 to 100 scale, 0 is no effect and 100 is complete control)” value [26] was 0 and the “Plant response rating, Rice (0 to 100 scale, 0 is no effect and 100 is complete control)” value (rice (Oryza sativa)) was 0. For the same molecule, the “Plant response rating, Sedge, Umbrella (0 to 100 scale, 0 is no effect and 100 is complete control)” value [27] was 0.
